# Results as given in BindingDB's records for doi:10.1016/j.ejmech.2020.112529 (Jagiellonian University, 2020).
# Biological target: 5-HT2A receptor (Homo sapiens)
# Assay: Displacement of [3H]-Ketanserin from human 5-HT2A receptor expressed in CHO-K1 cells incubated for 1 hr by microbeta counting method
row,Compound,Ki
1,CC(Oc1ccccc1Cl)c1nc(N)nc(N2CCN(C)CC2)n1 (configuration not stated),1830 nM
2,CC(Oc1cccc(Cl)c1Cl)c1nc(N)nc(N2CCN(C)CC2)n1 (configuration not stated),268 nM
3,CCCCC(Oc1cc(Cl)ccc1Cl)c1nc(N)nc(N2CCN(C)CC2)n1 (configuration not stated),431 nM

# Continued by falling Ki, values first:
row,Ki,Compound
1,1460 nM,CN1CCN(c2nc(N)nc(CCCOc3cc(Cl)ccc3Cl)n2)CC1
2,906 nM,CN1CCN(c2nc(N)nc(CCCOc3ccc(Cl)c(Cl)c3)n2)CC1
3,839 nM,CCCCC(Oc1cc(Cl)cc(Cl)c1)c1nc(N)nc(N2CCN(C)CC2)n1 (configuration not stated)
4,649 nM,CN1CCN(c2nc(N)nc(CCCOc3cccc(Cl)c3Cl)n2)CC1
